Data from ChEMBL document CHEMBL1157133, “Design, synthesis, and interaction study of quinazoline-2(1H)-thione derivatives as novel potential Bcl-xL inhibitors” (J Med Chem, 2010).

Tested on: K562
Test: cells
Settings: Homo sapiens, K562, 48 h
Description: Cytotoxicity against human K562 cells after 48 hrs by MTT assay

SMILES	EC50 [µM]
O=C(O)COc1cccc(/C=c2\sc3n(c2=O)C(c2ccco2)C2=C(N=3)c3ccccc3CC2)c1 (stereo not given)	> 100
O=C(O)COc1cccc(/C=c2\sc3n(c2=O)C(c2cccc(F)c2)C2=C(N=3)/C(=C/c3cccc(F)c3)CCC2)c1 (stereo not given)	> 100
O=C(O)c1cccc(-c2ccc(/C=c3\sc4n(c3=O)C(c3ccco3)C3=C(N=4)c4ccccc4CC3)o2)c1 (stereo not given)	> 100
O=C(O)c1cccc(-c2ccc(/C=c3\sc4n(c3=O)C(c3cccc([N+](=O)[O-])c3)C3=C(N=4)c4ccccc4CC3)o2)c1 (stereo not given)	17.3
O=C(O)COc1cccc(/C=c2\sc3n(c2=O)C(c2cccc(F)c2)C2=C(N=3)c3ccccc3CC2)c1 (stereo not given)	> 100

Other lines, results leading:

EC50 [µM]	SMILES
26.3	O=C(O)c1cccc(-c2ccc(/C=c3\sc4n(c3=O)C(c3ccc(F)cc3)C3=C(N=4)c4ccccc4CC3)o2)c1 (stereo not given)
5.62	COc1ccccc1C1C2=C(N=c3s/c(=C\c4ccc(OCC(=O)O)cc4)c(=O)n31)c1ccccc1CC2 (stereo not given)
> 100	O=C(O)c1cccc(-c2ccc(/C=c3\sc4n(c3=O)C(c3ccccc3F)C3=C(N=4)c4ccccc4CC3)o2)c1 (stereo not given)
> 100	COc1ccccc1C1C2=C(N=c3sc(=Cc4ccc(C=CC(=O)O)cc4)c(=O)n31)c1ccccc1CC2 (stereo not given)
> 100	CCOC(=O)COc1cccc(/C=c2\sc3n(c2=O)C(c2ccccc2OC)C2=C(N=3)c3ccccc3CC2)c1 (stereo not given)
9.41	COc1ccccc1C1C2=C(N=c3s/c(=C\c4ccc(-c5cccc(C(=O)O)c5)cc4)c(=O)n31)c1ccccc1CC2 (stereo not given)
6.33	O=C(O)COc1cccc(/C=c2\sc3n(c2=O)C(c2cccc4ccccc24)C2=C(N=3)c3ccccc3CC2)c1 (stereo not given)

Tested on: PC-3
Test: Cytotoxicity against human PC3 cells after 48 hrs by MTT assay
Format: functional, cell-based
Settings: not given

SMILES	Activity
O=C(O)c1cccc(-c2ccc(/C=c3\sc4n(c3=O)C(c3ccc(F)cc3)C3=C(N=4)c4ccccc4CC3)o2)c1 (stereo not given)	Dose-dependent effect
O=C(O)COc1cccc(/C=c2\sc3n(c2=O)C(c2ccco2)C2=C(N=3)c3ccccc3CC2)c1 (stereo not given)	Dose-dependent effect
COc1ccccc1C1C2=C(N=c3sc(=Cc4ccc(C=CC(=O)O)cc4)c(=O)n31)c1ccccc1CC2 (stereo not given)	Dose-dependent effect
O=C(O)c1cccc(-c2ccc(/C=c3\sc4n(c3=O)C(c3ccco3)C3=C(N=4)c4ccccc4CC3)o2)c1 (stereo not given)	Dose-dependent effect
O=C(O)c1cccc(-c2ccc(/C=c3\sc4n(c3=O)C(c3cccc([N+](=O)[O-])c3)C3=C(N=4)c4ccccc4CC3)o2)c1 (stereo not given)	Dose-dependent effect
O=C(O)COc1cccc(/C=c2\sc3n(c2=O)C(c2cccc(F)c2)C2=C(N=3)c3ccccc3CC2)c1 (stereo not given)	Dose-dependent effect

Same assay, conditions: PC-3, 48 h

SMILES	EC50 [µM]
O=C(O)c1cccc(-c2ccc(/C=c3\sc4n(c3=O)C(c3ccc(F)cc3)C3=C(N=4)c4ccccc4CC3)o2)c1 (stereo not given)	13.4
O=C(O)COc1cccc(/C=c2\sc3n(c2=O)C(c2ccco2)C2=C(N=3)c3ccccc3CC2)c1 (stereo not given)	10.2
COc1ccccc1C1C2=C(N=c3s/c(=C\c4ccc(OCC(=O)O)cc4)c(=O)n31)c1ccccc1CC2 (stereo not given)	11.1
O=C(O)c1cccc(-c2ccc(/C=c3\sc4n(c3=O)C(c3ccccc3F)C3=C(N=4)c4ccccc4CC3)o2)c1 (stereo not given)	31.2
COc1ccccc1C1C2=C(N=c3sc(=Cc4ccc(C=CC(=O)O)cc4)c(=O)n31)c1ccccc1CC2 (stereo not given)	17.3
CCOC(=O)COc1cccc(/C=c2\sc3n(c2=O)C(c2ccccc2OC)C2=C(N=3)c3ccccc3CC2)c1 (stereo not given)	45
COc1ccccc1C1C2=C(N=c3s/c(=C\c4ccc(-c5cccc(C(=O)O)c5)cc4)c(=O)n31)c1ccccc1CC2 (stereo not given)	67.1
O=C(O)COc1cccc(/C=c2\sc3n(c2=O)C(c2cccc(F)c2)C2=C(N=3)/C(=C/c3cccc(F)c3)CCC2)c1 (stereo not given)	12
O=C(O)c1cccc(-c2ccc(/C=c3\sc4n(c3=O)C(c3ccco3)C3=C(N=4)c4ccccc4CC3)o2)c1 (stereo not given)	79.5
O=C(O)COc1cccc(/C=c2\sc3n(c2=O)C(c2cccc4ccccc24)C2=C(N=3)c3ccccc3CC2)c1 (stereo not given)	68
O=C(O)c1cccc(-c2ccc(/C=c3\sc4n(c3=O)C(c3cccc([N+](=O)[O-])c3)C3=C(N=4)c4ccccc4CC3)o2)c1 (stereo not given)	44.9
O=C(O)COc1cccc(/C=c2\sc3n(c2=O)C(c2cccc(F)c2)C2=C(N=3)c3ccccc3CC2)c1 (stereo not given)	> 100

Tested on: HepG2
Test: cells
Settings: Homo sapiens, HepG2, 48 h
Description: Cytotoxicity against human HepG2 cells after 48 hrs by MTT assay

SMILES	EC50 [µM]
O=C(O)COc1cccc(/C=c2\sc3n(c2=O)C(c2ccco2)C2=C(N=3)c3ccccc3CC2)c1 (stereo not given)	72.8
O=C(O)COc1cccc(/C=c2\sc3n(c2=O)C(c2cccc(F)c2)C2=C(N=3)/C(=C/c3cccc(F)c3)CCC2)c1 (stereo not given)	15.9
O=C(O)c1cccc(-c2ccc(/C=c3\sc4n(c3=O)C(c3ccco3)C3=C(N=4)c4ccccc4CC3)o2)c1 (stereo not given)	> 500
O=C(O)c1cccc(-c2ccc(/C=c3\sc4n(c3=O)C(c3cccc([N+](=O)[O-])c3)C3=C(N=4)c4ccccc4CC3)o2)c1 (stereo not given)	13.4
O=C(O)COc1cccc(/C=c2\sc3n(c2=O)C(c2cccc(F)c2)C2=C(N=3)c3ccccc3CC2)c1 (stereo not given)	186

Continued, values first:

EC50 [µM]	SMILES
35.1	O=C(O)c1cccc(-c2ccc(/C=c3\sc4n(c3=O)C(c3ccc(F)cc3)C3=C(N=4)c4ccccc4CC3)o2)c1 (stereo not given)
15.3	COc1ccccc1C1C2=C(N=c3s/c(=C\c4ccc(OCC(=O)O)cc4)c(=O)n31)c1ccccc1CC2 (stereo not given)
> 500	O=C(O)c1cccc(-c2ccc(/C=c3\sc4n(c3=O)C(c3ccccc3F)C3=C(N=4)c4ccccc4CC3)o2)c1 (stereo not given)
49.8	COc1ccccc1C1C2=C(N=c3sc(=Cc4ccc(C=CC(=O)O)cc4)c(=O)n31)c1ccccc1CC2 (stereo not given)
32.3	CCOC(=O)COc1cccc(/C=c2\sc3n(c2=O)C(c2ccccc2OC)C2=C(N=3)c3ccccc3CC2)c1 (stereo not given)
7.2	COc1ccccc1C1C2=C(N=c3s/c(=C\c4ccc(-c5cccc(C(=O)O)c5)cc4)c(=O)n31)c1ccccc1CC2 (stereo not given)
19.9	O=C(O)COc1cccc(/C=c2\sc3n(c2=O)C(c2cccc4ccccc24)C2=C(N=3)c3ccccc3CC2)c1 (stereo not given)

Tested on: not listed separately
Test: Cytotoxicity against human Bel7404 cells after 48 hrs by MTT assay
Settings: BEL-7404, 48 h

SMILES	EC50 [µM]
O=C(O)c1cccc(-c2ccc(/C=c3\sc4n(c3=O)C(c3ccc(F)cc3)C3=C(N=4)c4ccccc4CC3)o2)c1 (stereo not given)	25.9
O=C(O)COc1cccc(/C=c2\sc3n(c2=O)C(c2ccco2)C2=C(N=3)c3ccccc3CC2)c1 (stereo not given)	14
COc1ccccc1C1C2=C(N=c3s/c(=C\c4ccc(OCC(=O)O)cc4)c(=O)n31)c1ccccc1CC2 (stereo not given)	6.1
O=C(O)c1cccc(-c2ccc(/C=c3\sc4n(c3=O)C(c3ccccc3F)C3=C(N=4)c4ccccc4CC3)o2)c1 (stereo not given)	> 500
COc1ccccc1C1C2=C(N=c3sc(=Cc4ccc(C=CC(=O)O)cc4)c(=O)n31)c1ccccc1CC2 (stereo not given)	11.2
CCOC(=O)COc1cccc(/C=c2\sc3n(c2=O)C(c2ccccc2OC)C2=C(N=3)c3ccccc3CC2)c1 (stereo not given)	92.3
COc1ccccc1C1C2=C(N=c3s/c(=C\c4ccc(-c5cccc(C(=O)O)c5)cc4)c(=O)n31)c1ccccc1CC2 (stereo not given)	4.5
O=C(O)COc1cccc(/C=c2\sc3n(c2=O)C(c2cccc(F)c2)C2=C(N=3)/C(=C/c3cccc(F)c3)CCC2)c1 (stereo not given)	4.3
O=C(O)c1cccc(-c2ccc(/C=c3\sc4n(c3=O)C(c3ccco3)C3=C(N=4)c4ccccc4CC3)o2)c1 (stereo not given)	> 500
O=C(O)COc1cccc(/C=c2\sc3n(c2=O)C(c2cccc4ccccc24)C2=C(N=3)c3ccccc3CC2)c1 (stereo not given)	3.1
O=C(O)c1cccc(-c2ccc(/C=c3\sc4n(c3=O)C(c3cccc([N+](=O)[O-])c3)C3=C(N=4)c4ccccc4CC3)o2)c1 (stereo not given)	65.1
O=C(O)COc1cccc(/C=c2\sc3n(c2=O)C(c2cccc(F)c2)C2=C(N=3)c3ccccc3CC2)c1 (stereo not given)	50.9

Tested on: A2780
Test: cells
Settings: Homo sapiens, A2780, 48 h
Description: Cytotoxicity against human A2780 cells after 48 hrs by MTT assay

SMILES	EC50 [µM]
O=C(O)COc1cccc(/C=c2\sc3n(c2=O)C(c2ccco2)C2=C(N=3)c3ccccc3CC2)c1 (stereo not given)	15.3
O=C(O)COc1cccc(/C=c2\sc3n(c2=O)C(c2cccc(F)c2)C2=C(N=3)/C(=C/c3cccc(F)c3)CCC2)c1 (stereo not given)	6.8
O=C(O)c1cccc(-c2ccc(/C=c3\sc4n(c3=O)C(c3ccco3)C3=C(N=4)c4ccccc4CC3)o2)c1 (stereo not given)	15.8
O=C(O)c1cccc(-c2ccc(/C=c3\sc4n(c3=O)C(c3cccc([N+](=O)[O-])c3)C3=C(N=4)c4ccccc4CC3)o2)c1 (stereo not given)	3.9
O=C(O)COc1cccc(/C=c2\sc3n(c2=O)C(c2cccc(F)c2)C2=C(N=3)c3ccccc3CC2)c1 (stereo not given)	16.9

Second part, the compound after the results:

EC50 [µM]	SMILES
7.38	O=C(O)c1cccc(-c2ccc(/C=c3\sc4n(c3=O)C(c3ccc(F)cc3)C3=C(N=4)c4ccccc4CC3)o2)c1 (stereo not given)
6.13	COc1ccccc1C1C2=C(N=c3s/c(=C\c4ccc(OCC(=O)O)cc4)c(=O)n31)c1ccccc1CC2 (stereo not given)
> 100	O=C(O)c1cccc(-c2ccc(/C=c3\sc4n(c3=O)C(c3ccccc3F)C3=C(N=4)c4ccccc4CC3)o2)c1 (stereo not given)
7.85	COc1ccccc1C1C2=C(N=c3sc(=Cc4ccc(C=CC(=O)O)cc4)c(=O)n31)c1ccccc1CC2 (stereo not given)
17.8	CCOC(=O)COc1cccc(/C=c2\sc3n(c2=O)C(c2ccccc2OC)C2=C(N=3)c3ccccc3CC2)c1 (stereo not given)
2.23	COc1ccccc1C1C2=C(N=c3s/c(=C\c4ccc(-c5cccc(C(=O)O)c5)cc4)c(=O)n31)c1ccccc1CC2 (stereo not given)
7.52	O=C(O)COc1cccc(/C=c2\sc3n(c2=O)C(c2cccc4ccccc24)C2=C(N=3)c3ccccc3CC2)c1 (stereo not given)

Biological target: Bcl-2-like protein 1 (Homo sapiens, UniProt Q07817)
Test: Inhibition of human Bcl-XL
Settings: not given

Sequence of Bcl-2-like protein 1 (Q07817 whole entry): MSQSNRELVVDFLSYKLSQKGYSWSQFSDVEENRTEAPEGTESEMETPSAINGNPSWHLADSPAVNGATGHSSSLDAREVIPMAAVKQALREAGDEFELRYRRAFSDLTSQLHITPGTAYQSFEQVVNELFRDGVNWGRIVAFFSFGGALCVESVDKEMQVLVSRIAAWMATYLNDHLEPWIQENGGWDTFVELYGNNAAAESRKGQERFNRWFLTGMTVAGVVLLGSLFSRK

SMILES	IC50 [µM]
O=C(O)COc1cccc(/C=c2\sc3n(c2=O)C(c2ccco2)C2=C(N=3)c3ccccc3CC2)c1 (stereo not given)	40.4
O=C(O)COc1cccc(/C=c2\sc3n(c2=O)C(c2cccc(F)c2)C2=C(N=3)/C(=C/c3cccc(F)c3)CCC2)c1 (stereo not given)	> 100
O=C(O)c1cccc(-c2ccc(/C=c3\sc4n(c3=O)C(c3ccco3)C3=C(N=4)c4ccccc4CC3)o2)c1 (stereo not given)	35.9
O=C(O)c1cccc(-c2ccc(/C=c3\sc4n(c3=O)C(c3cccc([N+](=O)[O-])c3)C3=C(N=4)c4ccccc4CC3)o2)c1 (stereo not given)	1.9
O=C(O)COc1cccc(/C=c2\sc3n(c2=O)C(c2cccc(F)c2)C2=C(N=3)c3ccccc3CC2)c1 (stereo not given)	5.4

Results, then the compound that gave them:

IC50 [µM]	SMILES
5.2	O=C(O)c1cccc(-c2ccc(/C=c3\sc4n(c3=O)C(c3ccc(F)cc3)C3=C(N=4)c4ccccc4CC3)o2)c1 (stereo not given)
36	COc1ccccc1C1C2=C(N=c3s/c(=C\c4ccc(OCC(=O)O)cc4)c(=O)n31)c1ccccc1CC2 (stereo not given)
6.2	O=C(O)c1cccc(-c2ccc(/C=c3\sc4n(c3=O)C(c3ccccc3F)C3=C(N=4)c4ccccc4CC3)o2)c1 (stereo not given)
12.7	COc1ccccc1C1C2=C(N=c3sc(=Cc4ccc(C=CC(=O)O)cc4)c(=O)n31)c1ccccc1CC2 (stereo not given)
100	CCOC(=O)COc1cccc(/C=c2\sc3n(c2=O)C(c2ccccc2OC)C2=C(N=3)c3ccccc3CC2)c1 (stereo not given)
26.7	COc1ccccc1C1C2=C(N=c3s/c(=C\c4ccc(-c5cccc(C(=O)O)c5)cc4)c(=O)n31)c1ccccc1CC2 (stereo not given)
19.7	O=C(O)COc1cccc(/C=c2\sc3n(c2=O)C(c2cccc4ccccc24)C2=C(N=3)c3ccccc3CC2)c1 (stereo not given)

Tested on: OVCAR-3
Test: Cytotoxicity against human OVCAR-3 cells after 48 hrs by MTT assay
Settings: OVCAR-3, 48 h

SMILES	EC50 [µM]
O=C(O)c1cccc(-c2ccc(/C=c3\sc4n(c3=O)C(c3ccc(F)cc3)C3=C(N=4)c4ccccc4CC3)o2)c1 (stereo not given)	5.85
O=C(O)COc1cccc(/C=c2\sc3n(c2=O)C(c2ccco2)C2=C(N=3)c3ccccc3CC2)c1 (stereo not given)	8.5
COc1ccccc1C1C2=C(N=c3s/c(=C\c4ccc(OCC(=O)O)cc4)c(=O)n31)c1ccccc1CC2 (stereo not given)	2.85
O=C(O)c1cccc(-c2ccc(/C=c3\sc4n(c3=O)C(c3ccccc3F)C3=C(N=4)c4ccccc4CC3)o2)c1 (stereo not given)	76.6
COc1ccccc1C1C2=C(N=c3sc(=Cc4ccc(C=CC(=O)O)cc4)c(=O)n31)c1ccccc1CC2 (stereo not given)	3.29
CCOC(=O)COc1cccc(/C=c2\sc3n(c2=O)C(c2ccccc2OC)C2=C(N=3)c3ccccc3CC2)c1 (stereo not given)	47.5
COc1ccccc1C1C2=C(N=c3s/c(=C\c4ccc(-c5cccc(C(=O)O)c5)cc4)c(=O)n31)c1ccccc1CC2 (stereo not given)	7.17
O=C(O)COc1cccc(/C=c2\sc3n(c2=O)C(c2cccc(F)c2)C2=C(N=3)/C(=C/c3cccc(F)c3)CCC2)c1 (stereo not given)	3.27
O=C(O)c1cccc(-c2ccc(/C=c3\sc4n(c3=O)C(c3ccco3)C3=C(N=4)c4ccccc4CC3)o2)c1 (stereo not given)	> 100
O=C(O)COc1cccc(/C=c2\sc3n(c2=O)C(c2cccc4ccccc24)C2=C(N=3)c3ccccc3CC2)c1 (stereo not given)	2.21
O=C(O)c1cccc(-c2ccc(/C=c3\sc4n(c3=O)C(c3cccc([N+](=O)[O-])c3)C3=C(N=4)c4ccccc4CC3)o2)c1 (stereo not given)	26.9
O=C(O)COc1cccc(/C=c2\sc3n(c2=O)C(c2cccc(F)c2)C2=C(N=3)c3ccccc3CC2)c1 (stereo not given)	2.8
